The test addresses T1, AR protein expression in human prostate cancer cells LNCaP (Homo sapiens, UniProt P10275, T878A).
T1 sequence (P10275 1-920 T878A): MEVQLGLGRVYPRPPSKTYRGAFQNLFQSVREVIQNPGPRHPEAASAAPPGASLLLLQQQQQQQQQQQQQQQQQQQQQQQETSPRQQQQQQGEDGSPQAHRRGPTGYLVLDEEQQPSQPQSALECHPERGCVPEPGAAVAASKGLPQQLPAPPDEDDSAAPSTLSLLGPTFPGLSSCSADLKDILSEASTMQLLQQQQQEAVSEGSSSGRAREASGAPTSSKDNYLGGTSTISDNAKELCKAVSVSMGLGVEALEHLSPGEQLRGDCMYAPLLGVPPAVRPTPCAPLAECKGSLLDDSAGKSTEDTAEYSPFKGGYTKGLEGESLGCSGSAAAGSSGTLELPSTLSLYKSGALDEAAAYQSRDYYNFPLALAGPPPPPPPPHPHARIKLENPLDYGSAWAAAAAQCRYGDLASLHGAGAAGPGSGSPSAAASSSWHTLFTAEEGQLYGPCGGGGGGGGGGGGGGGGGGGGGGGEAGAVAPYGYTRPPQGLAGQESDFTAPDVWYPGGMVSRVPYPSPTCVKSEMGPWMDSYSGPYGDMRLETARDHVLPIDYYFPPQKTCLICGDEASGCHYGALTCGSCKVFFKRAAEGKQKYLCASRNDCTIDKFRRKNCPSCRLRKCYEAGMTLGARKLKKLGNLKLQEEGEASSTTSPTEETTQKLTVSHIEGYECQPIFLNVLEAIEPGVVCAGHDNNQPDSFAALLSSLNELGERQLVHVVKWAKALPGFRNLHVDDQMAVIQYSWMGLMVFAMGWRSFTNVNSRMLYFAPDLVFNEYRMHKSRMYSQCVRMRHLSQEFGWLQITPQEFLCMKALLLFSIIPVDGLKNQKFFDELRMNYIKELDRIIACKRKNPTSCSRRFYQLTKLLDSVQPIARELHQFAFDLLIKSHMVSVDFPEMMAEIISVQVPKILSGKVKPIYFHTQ
The test is described as follows: Reduction of AR protein expression in LNCaP cells (Western blot, with DHT). Format: cell-based. The conditions noted are these: 1 nM DHT; for anti-AR activity (in words): Western blot; for AR reduction percentage / Relative potency (anti-AR activity): 48 h; for Relative potency (anti-AR activity): concentration basis not given. The procedure: The term “anti-AR activity” refers to the ability of the compound of the present disclosure to reduce AR expression in human prostate cancer cells LNCaP, and the ability of the compound of the present disclosure to reduce AR expression is expressed in AR reduction percentage (%) herein. […] The AR reduction percentage (%) is calculated as follows: AR reduction percentage (%)=(AR in DHT group/GAPDH value−AR in test compound group/GAPDH value)/AR in DHT group/GAPDH value×100%.
AR is a key factor for regulating the response of prostate cancer cells to androgens. AR is also a key factor for the response of hair follicles or tissues around the hair follicles to androgens, and the reduction of the AR content not only can down-regulate the growth of the prostate cancer cells, but also can inhibit androgenetic alopecia. This test example is to test the effects of the compounds of the present disclosure on the reduction of AR protein expression in human prostate cancer cells LNCaP in the presence of DHT. The compounds of the present disclosure were analyzed for anti-AR activity in human prostate cancer cells LNCaP by measuring the reduction of AR protein using the Western blot method.
Human prostate cancer cells LNCaP were seeded in a 6-well plate at 4×10^5 cells/mL and at a volume of 2 mL per well. The plate was incubated overnight in a cell incubator. DMSO and dihydrotestosterone (DHT, 1 nM) were used as control groups. Assays were performed in the presence of dihydrotestosterone (DHT, 1 nM). After incubating with the test compounds for a specified time, the cells were collected and dissolved according to the Western blot technique known in the biochemical art. A DMSO group, a DHT group (1 nM) and test compound groups (containing 1 nM DHT) were set during the assay. DMSO and DHT (1 nM DHT) were added to 6-well plates corresponding to the DMSO group and the DHT group, respectively. […] The protein concentration was quantified using the BCA kit, and then the samples were stored for later use.
The content of the AR protein in each group was determined by using Western Blot, and the loading amount of the sample in each group was […]. Western blot analysis has been disclosed in the prior art. Specifically, the cells were collected in 2× sodium dodecyl sulfate/polyacrylamide gel electrophoresis loading buffer or in radioimmunoprecipitation assay (RIPA) buffer strengthened with 10 μg/mL benzamidine, 10 μg/mL trypsin inhibitor, and 1 mM phenylmethylsulfonyl fluoride. A sample of total protein (about 40 μg) from each cell lysate was separated by electrophoresis on an SDS/PAGE gel. After separation by electrophoresis, the proteins were transferred from the gel to a nitrocellulose membrane following the standard procedures. The membrane was then incubated with 10% non-fat milk in phosphate-buffered saline supplemented with 0.1% Tween 20 (PBST) for 1 h, followed by incubation with a primary human AR-specific antibody (purchased from BD-Harlingen) at 4° C. overnight. After incubation, the membrane was washed 3 times with PBST buffer, each for 10 mins. An alkaline phosphatase-conjugated secondary antibody was then added, and the membrane was incubated at room temperature for 1 h. After the secondary incubation, the membrane was washed again with PBST, and the AR protein signal in the membrane was visualized by adding an alkaline phosphatase medium, bromochloroindolyl phosphate, and nitrotetrazole to the membrane. To ensure that an equal amount of protein from each sample was analyzed, a portion of the membrane was kept with a specific antibody for the regulatory protein GAPDH (Santa Cruz Biotechnology), and the GAPDH signal was visualized with the secondary antibody described above. The protein signal intensity (as indicated by color bands on the membrane) was measured using a densitometer and analyzed by the NIH Image J software (NIH1.33).

With `COc1ccc(/C=C/C(=O)C2(C(=O)/C=C/c3ccc(OC)c(OC)c3)CCC(=O)CC2)cc1OC` [Compound 7], the “anti-AR activity (in words)” value was “significant anti-AR activities” and the “Relative potency (anti-AR activity)” value is on record as “+++++ (62.5 < * ≤ 75)”. This compound had an AR reduction percentage (2.5 μmol/L compound) of 0%. This compound displayed an AR reduction percentage (5 μmol/L compound) of 67.3%. Also, under “10 μmol/L compound”, the AR reduction percentage came to 95.6%.

Turning to `COc1ccc(/C=C/C(=O)C2(C(=O)/C=C/c3ccc(OC)c(OC)c3)CCC(F)(F)CC2)cc1OC` [Compound 8], the “anti-AR activity (in words)” value was “significant anti-AR activities” and the “Relative potency (anti-AR activity)” value is recorded as “++++++ (75 < * ≤ 100)”. Further, the AR reduction percentage (2.5 μmol/L compound) is 57.5%. For the same compound, the AR reduction percentage (5 μmol/L compound) is given as 87.3%. The same compound came in with an AR reduction percentage (10 μmol/L compound) of 92.2%.
